# Measurements taken from PubChem BioAssay (NCI).
#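 Following 48 hours of exposure in 96-well plates, responses at five concentrations were used to interpolate endpoints linearly. Here, GI50 denotes the concentration required for 50% inhibition of growth. TGI is the concentration that stops growth completely.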
# What was measured:
# Assay in all cases: DTP human tumour cell line panel, 48 h
# CCRF-CEM leukemia = system: CCRF-CEM leukemia
# NCI-H460 lung = system: NCI-H460 lung
# M14 melanoma = system: M14 melanoma
# HCT-116 colon = system: HCT-116 colon
# TK-10 renal = system: TK-10 renal
# RPMI-8226 leukemia = system: RPMI-8226 leukemia
# HT29 colon = system: HT29 colon
# A549 NSCLC = system: A549 NSCLC
# RXF 393 renal = system: RXF 393 renal
# U251 CNS = system: U251 CNS
compound,measurement,setting,value
N#Cc1c(N2CCCC2)nsc1Nc1ccccc1,TGI,CCRF-CEM leukemia,> 100 µM
same,TGI,NCI-H460 lung,> 100 µM
same,TGI,M14 melanoma,> 100 µM
same,TGI,HCT-116 colon,> 100 µM
same,TGI,TK-10 renal,> 100 µM
same,TGI,RPMI-8226 leukemia,> 100 µM
same,TGI,HT29 colon,> 100 µM
same,TGI,A549 NSCLC,> 100 µM
same,TGI,RXF 393 renal,> 100 µM
CC(C)N1[C@@H]2CCCC[C@H]2N(C(C)C)[P+]1=O,TGI,CCRF-CEM leukemia,> 100 µM
same,TGI,NCI-H460 lung,> 100 µM
same,TGI,M14 melanoma,> 100 µM
same,TGI,HCT-116 colon,> 100 µM
same,TGI,TK-10 renal,> 100 µM
same,TGI,RPMI-8226 leukemia,> 100 µM
same,TGI,HT29 colon,> 100 µM
same,TGI,A549 NSCLC,> 100 µM
same,TGI,RXF 393 renal,> 100 µM
Cc1cc(O)c(C(C)C)cc1C(=S)Nc1ccc(Cl)cc1,TGI,CCRF-CEM leukemia,16.7 µM
same,TGI,U251 CNS,27.8 µM
same,TGI,NCI-H460 lung,27.4 µM
same,TGI,HCT-116 colon,26 µM
same,TGI,RPMI-8226 leukemia,33 µM
same,TGI,HT29 colon,27.9 µM
CC(C)(CO)CNc1cc(Cl)nc(N)n1,TGI,CCRF-CEM leukemia,> 100 µM
same,TGI,U251 CNS,> 100 µM
same,TGI,NCI-H460 lung,> 100 µM
same,TGI,HCT-116 colon,> 100 µM
same,TGI,TK-10 renal,> 100 µM
same,TGI,RPMI-8226 leukemia,> 100 µM
same,TGI,HT29 colon,> 100 µM
same,TGI,A549 NSCLC,> 100 µM
same,TGI,RXF 393 renal,> 100 µM
Fc1ccc2c(c1)nc1n2C(c2c(F)cccc2F)SC1 (configuration not stated),TGI,U251 CNS,> 100 µM
same,TGI,NCI-H460 lung,> 100 µM
same,TGI,M14 melanoma,> 100 µM
same,TGI,HCT-116 colon,> 100 µM
same,TGI,TK-10 renal,> 100 µM
same,TGI,RPMI-8226 leukemia,> 100 µM
same,TGI,HT29 colon,> 100 µM
same,TGI,A549 NSCLC,> 100 µM
same,TGI,RXF 393 renal,> 100 µM
CSc1nc(-c2ccccc2)nc(=[N+]2CCOCC2)s1,TGI,CCRF-CEM leukemia,62.6 µM
same,TGI,U251 CNS,> 100 µM
same,TGI,NCI-H460 lung,> 100 µM
same,TGI,M14 melanoma,> 100 µM
same,TGI,HCT-116 colon,> 100 µM
same,TGI,TK-10 renal,> 100 µM
same,TGI,HT29 colon,> 100 µM
same,TGI,A549 NSCLC,> 100 µM
same,TGI,RXF 393 renal,> 100 µM
c1ccc(OCc2nnc(CCCCCCCCc3nnc(COc4ccccc4)o3)o2)cc1,TGI,CCRF-CEM leukemia,> 100 µM
same,TGI,U251 CNS,> 100 µM
same,TGI,NCI-H460 lung,> 100 µM
same,TGI,M14 melanoma,> 100 µM
same,TGI,HCT-116 colon,> 100 µM
same,TGI,TK-10 renal,> 100 µM
same,TGI,HT29 colon,> 100 µM
same,TGI,A549 NSCLC,> 100 µM
same,TGI,RXF 393 renal,30.8 µM
CC(C)(C)CC(C)(C)NCC(O)COc1ccc(C(C)(C)c2ccc(OCC(O)CNC(C)(C)CC(C)(C)C)cc2)cc1 (configuration not stated),TGI,CCRF-CEM leukemia,1.03 µM
same,TGI,U251 CNS,2.2 µM
same,TGI,NCI-H460 lung,0.782 µM
same,TGI,M14 melanoma,1.49 µM
same,TGI,HCT-116 colon,5.38 µM
same,GI50,TK-10 renal,1.75 µM
same,TGI,TK-10 renal,3.32 µM
same,TGI,HT29 colon,1.42 µM
same,TGI,A549 NSCLC,3.02 µM
same,TGI,RXF 393 renal,2.75 µM
Cc1ccc2c(c1)Nc1ccccc1P2(=O)O,TGI,CCRF-CEM leukemia,> 100 µM
same,TGI,U251 CNS,> 100 µM
same,TGI,NCI-H460 lung,> 100 µM
same,TGI,M14 melanoma,> 100 µM
same,TGI,HCT-116 colon,> 100 µM
same,TGI,TK-10 renal,> 100 µM
same,TGI,HT29 colon,> 100 µM
same,TGI,A549 NSCLC,> 100 µM
same,TGI,RXF 393 renal,> 100 µM
CCN(CC)C(=O)c1cc([N+](=O)[O-])c(=O)n2c1[nH]c1ccccc12,TGI,CCRF-CEM leukemia,> 100 µM
same,TGI,NCI-H460 lung,> 100 µM
same,TGI,M14 melanoma,> 100 µM
same,TGI,HCT-116 colon,> 100 µM
same,TGI,TK-10 renal,> 100 µM
same,TGI,RPMI-8226 leukemia,> 100 µM
same,TGI,HT29 colon,> 100 µM
same,TGI,A549 NSCLC,> 100 µM
same,TGI,RXF 393 renal,> 100 µM
C=C(Cl)CN1c2ccccc2C=Cc2ccccc21,TGI,U251 CNS,30.9 µM
same,TGI,NCI-H460 lung,16.2 µM
same,TGI,M14 melanoma,57.8 µM
same,TGI,HCT-116 colon,29 µM
same,TGI,TK-10 renal,> 100 µM
same,TGI,HT29 colon,56.4 µM
same,TGI,A549 NSCLC,> 100 µM
same,TGI,RXF 393 renal,33 µM
COc1ccc(C2=Nc3c(nc(SC)[nH]c3=O)NC(c3ccccc3)C2)cc1 (configuration not stated),TGI,CCRF-CEM leukemia,98.6 µM
same,TGI,U251 CNS,36.4 µM
same,TGI,M14 melanoma,66 µM
same,TGI,HCT-116 colon,> 100 µM
same,TGI,RPMI-8226 leukemia,62 µM
same,TGI,HT29 colon,49.8 µM
same,TGI,A549 NSCLC,66.5 µM
same,TGI,RXF 393 renal,39 µM
Clc1ncnc2c1nc(C#Cc1ccccc1)n2C1CCCCO1 (configuration not stated),TGI,CCRF-CEM leukemia,> 100 µM
same,TGI,U251 CNS,4.29 µM
same,TGI,NCI-H460 lung,8.09 µM
same,TGI,M14 melanoma,4.39 µM
same,TGI,HCT-116 colon,4.02 µM
same,TGI,TK-10 renal,5.11 µM
same,TGI,HT29 colon,3.98 µM
same,TGI,A549 NSCLC,4.04 µM
Nc1ccc(C(=O)O)cc1,TGI,CCRF-CEM leukemia,> 100 µM
same,TGI,U251 CNS,> 100 µM
same,TGI,NCI-H460 lung,> 100 µM
same,TGI,M14 melanoma,> 100 µM
same,TGI,HCT-116 colon,> 100 µM
same,TGI,TK-10 renal,> 100 µM
same,TGI,RPMI-8226 leukemia,> 100 µM
same,TGI,HT29 colon,> 100 µM
same,TGI,A549 NSCLC,> 100 µM
COc1ccc(C2NC(N)=C(C#N)C3=C2C(C)CCC3)cc1OC (configuration not stated),TGI,CCRF-CEM leukemia,> 100 µM
same,TGI,U251 CNS,> 100 µM
same,TGI,M14 melanoma,> 100 µM
same,TGI,HCT-116 colon,> 100 µM
same,TGI,TK-10 renal,> 100 µM
same,TGI,RPMI-8226 leukemia,> 100 µM
same,TGI,HT29 colon,> 100 µM
same,TGI,RXF 393 renal,> 100 µM
Cc1ccsc1/C=N/Nc1cc(C)c2ccccc2n1,TGI,CCRF-CEM leukemia,57.8 µM
same,TGI,U251 CNS,31.4 µM
same,TGI,M14 melanoma,34.4 µM
same,TGI,HCT-116 colon,28.7 µM
same,TGI,TK-10 renal,31.9 µM
same,TGI,RPMI-8226 leukemia,8.9 µM
same,TGI,HT29 colon,15 µM
same,TGI,A549 NSCLC,52.3 µM
same,TGI,RXF 393 renal,47.8 µM
COc1cc(-c2nc(SC)nc3c2CCc2ccccc2-3)cc(OC)c1OC,TGI,CCRF-CEM leukemia,> 100 µM
same,TGI,U251 CNS,> 100 µM
same,TGI,M14 melanoma,> 100 µM
same,TGI,HCT-116 colon,> 100 µM
same,TGI,RPMI-8226 leukemia,68.8 µM
same,TGI,HT29 colon,> 100 µM
same,TGI,A549 NSCLC,> 100 µM
same,TGI,RXF 393 renal,> 100 µM
Cc1ccc2c(=O)cc(-c3cccc(F)c3)[nH]c2n1,TGI,CCRF-CEM leukemia,> 100 µM
same,TGI,U251 CNS,> 74.7 µM
same,TGI,M14 melanoma,> 100 µM
same,TGI,TK-10 renal,> 100 µM
same,TGI,RPMI-8226 leukemia,> 19.8 µM
same,TGI,HT29 colon,1.11 µM
same,TGI,A549 NSCLC,> 100 µM
same,TGI,RXF 393 renal,> 100 µM
CCCCCCCCCCCCCCCCCCNc1nc(=O)n(C2CC(OP(=O)(O)OCC3OC(n4cc(F)c(=O)[nH]c4=O)CC3O)C(CO)O2)cc1F (configuration not stated),TGI,CCRF-CEM leukemia,42.7 µM
same,TGI,U251 CNS,65.2 µM
same,TGI,M14 melanoma,43.3 µM
same,TGI,HCT-116 colon,> 100 µM
same,TGI,TK-10 renal,> 100 µM
same,TGI,RPMI-8226 leukemia,49.7 µM
same,TGI,HT29 colon,48.4 µM
same,TGI,A549 NSCLC,> 100 µM
same,TGI,RXF 393 renal,63 µM
CC1C(c2ccccc2)NC(c2ccccc2)CC1(N)C#N (configuration not stated),TGI,CCRF-CEM leukemia,> 100 µM
same,TGI,U251 CNS,> 100 µM
same,TGI,NCI-H460 lung,> 100 µM
same,TGI,M14 melanoma,> 100 µM
same,TGI,HCT-116 colon,> 100 µM
same,TGI,TK-10 renal,> 100 µM
same,TGI,HT29 colon,> 100 µM
same,TGI,A549 NSCLC,> 100 µM
same,TGI,RXF 393 renal,> 100 µM
CCOC(=O)CCC(NC(=O)c1ccc(Nc2nc3ccccc3nc2C(=O)OCC)s1)C(=O)OCC (configuration not stated),TGI,U251 CNS,> 100 µM
same,TGI,NCI-H460 lung,> 100 µM
same,TGI,M14 melanoma,> 100 µM
same,TGI,HCT-116 colon,> 100 µM
same,TGI,TK-10 renal,> 100 µM
same,TGI,RPMI-8226 leukemia,> 100 µM
same,TGI,HT29 colon,> 100 µM
same,TGI,A549 NSCLC,> 100 µM
same,TGI,RXF 393 renal,> 100 µM
Nc1ncc2c(n1)-c1ccccc1OC2,TGI,CCRF-CEM leukemia,> 100 µM
same,TGI,U251 CNS,> 100 µM
same,TGI,NCI-H460 lung,> 100 µM
same,TGI,HCT-116 colon,> 100 µM
same,TGI,RPMI-8226 leukemia,> 100 µM
same,TGI,HT29 colon,> 100 µM
same,TGI,A549 NSCLC,> 100 µM
same,TGI,RXF 393 renal,> 100 µM
NS(=O)(=O)c1ccc(NCc2nc3ccccc3[nH]2)cc1,TGI,U251 CNS,> 100 µM
same,TGI,NCI-H460 lung,> 100 µM
same,TGI,M14 melanoma,> 100 µM
same,TGI,HCT-116 colon,> 100 µM
same,TGI,TK-10 renal,> 100 µM
same,TGI,HT29 colon,> 100 µM
same,TGI,A549 NSCLC,> 100 µM
same,TGI,RXF 393 renal,> 100 µM
